Target: T1, Purified P450arom (aromatase) reconstituted with P450-reductase (CPR) (Homo sapiens, UniProt P11511)
T1 sequence (P11511 1-503): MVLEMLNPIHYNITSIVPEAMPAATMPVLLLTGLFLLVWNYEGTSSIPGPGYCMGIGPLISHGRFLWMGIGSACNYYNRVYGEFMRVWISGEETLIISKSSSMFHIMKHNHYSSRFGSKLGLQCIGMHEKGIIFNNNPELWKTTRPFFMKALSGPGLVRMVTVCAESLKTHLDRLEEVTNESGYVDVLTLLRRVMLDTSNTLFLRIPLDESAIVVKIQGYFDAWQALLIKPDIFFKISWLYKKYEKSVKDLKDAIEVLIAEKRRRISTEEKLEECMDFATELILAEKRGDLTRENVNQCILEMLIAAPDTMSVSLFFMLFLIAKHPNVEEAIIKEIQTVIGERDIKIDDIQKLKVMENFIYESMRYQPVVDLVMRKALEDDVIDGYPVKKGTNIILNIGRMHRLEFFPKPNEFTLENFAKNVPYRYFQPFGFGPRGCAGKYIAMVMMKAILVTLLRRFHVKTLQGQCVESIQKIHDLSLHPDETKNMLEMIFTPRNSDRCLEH
Experiment: Measurement of aromatase activity by 3H-water method
Type: biochemical
Conditions: substrate 0.24 μM [1β-3H, 4-14C] androstenedione, 37° C., 20 minutes

[1] = compound concentration 0.1 (μmol)
[2] = compound concentration 1 (μmol)
[3] = compound concentration 10 (μmol)

SMILES	% Inhibition [1] [%]	% Inhibition [2] [%]	% Inhibition [3] [%]
CC(=O)OC1=C(O)C=C[C@@]2(C)C1=CC[C@@H]1[C@@H]2CC[C@]2(C)C(=O)CC[C@@H]12 [HDDG-039]	33	98	88
COC1=C(O)C=C[C@@]2(C)C1=CC[C@@H]1[C@@H]2CC[C@]2(C)C(=O)CC[C@@H]12 [HDDG-011]			37
C[C@]12C=CC(=O)C=C1[C@H](OCC#CCO)C[C@@H]1[C@@H]2CC[C@]2(C)C(=O)CC[C@@H]12 [HDDG-065]	96	84	
CCOC1=C(O)C=C[C@@]2(C)C1=CC[C@@H]1[C@@H]2CC[C@]2(C)C(=O)CC[C@@H]12 [HDDG-007]		12	0
C[C@]12C=CC(=O)C=C1[C@H](O)C[C@@H]1[C@@H]2CC[C@]2(C)C(=O)CC[C@@H]12 [HDDG-010]			55
CCO[C@@H]1C[C@@H]2[C@H](CC[C@]3(C)C(=O)CC[C@@H]23)[C@@]2(C)C=CC(=O)C=C12 [HDDG-025]		19	39
CC(C)(C)O[C@@H]1C[C@@H]2[C@H](CC[C@]3(C)C(=O)CC[C@@H]23)[C@@]2(C)C=CC(=O)C=C12 [HDDG-015]			54
C[C@]12C=CC(O)=C(OCc3ccccc3)C1=CC[C@@H]1[C@@H]2CC[C@]2(C)C(=O)CC[C@@H]12 [HDDG-043]	18	97	90
CCCCC#CCO[C@@H]1C[C@@H]2[C@H](CC[C@]3(C)C(=O)CC[C@@H]23)[C@@]2(C)C=CC(=O)C=C12 [HDDG-048]	48	87	97
C[C@]12CCC(=O)C=C1C(Br)C[C@@H]1[C@@H]2CC[C@]2(C)C(=O)CC[C@@H]12 (some centres unmarked) [HDDG-017]			64
CCCC#CCO[C@@H]1C[C@@H]2[C@H](CC[C@]3(C)C(=O)CC[C@@H]23)[C@@]2(C)C=CC(=O)C=C12 [HDDG-047]	42	95	99
C[C@]12CCC(O)=C(OCc3ccccc3)C1=CC[C@@H]1[C@@H]2CC[C@]2(C)C(=O)CC[C@@H]12 [HDDG-050, (8R,9S,10R,13S,14S)-4-(benzyloxy)-3-hydroxy-10,13-dimethyl-7,8,9,10,11,12,13,14,15,16-decahydro-1H-cyclopenta[α]phenanthren-17(2H)-one]	75	96	100
C[C@]12C=CC(=O)C=C1[C@H](OCC#Cc1ccccc1)C[C@@H]1[C@@H]2CC[C@]2(C)C(=O)CC[C@@H]12 [HDDG-027]	27	66	94
CCCCO[C@@H]1C[C@@H]2[C@H](CC[C@]3(C)C(=O)CC[C@@H]23)[C@@]2(C)C=CC(=O)C=C12 [HDDG-044, (6R,8S,9S,10R,13S,14S)-6-butoxy-10,13-dimethyl-7,8,9,10,11,12,13,14,15,16-decahydro-3H-cyclopenta[α]phenanthrene-3,17(6H)-dione]	73	96	86
C[C@]12CCC(=O)C(=[N+]=[N-])C1=CC[C@@H]1[C@@H]2CC[C@]2(C)C(=O)CC[C@@H]12 [HDDG-023]	24	30	33
CC/C=C/CO[C@@H]1C[C@@H]2[C@H](CC[C@]3(C)C(=O)CC[C@@H]23)[C@@]2(C)C=CC(=O)C=C12 [HDDG-061, (6R,8R,9S,10R,13S,14S)-10,13-dimethyl-6-((E)-pent-2-en-1-yloxy)-7,8,9,10,11,12,13,14,15,16-decahydro-3H-cyclopenta[α]phenanthrene-3,17(6H)-dione]	96	93	
CCC(=O)O[C@@H]1C[C@@H]2[C@H](CC[C@]3(C)C(=O)CC[C@@H]23)[C@@]2(C)C=CC(=O)C=C12 [HDDG-030]	3	0	29
C[C@]12CCC(=O)C=C1[C@H](OCc1ccccc1)C[C@@H]1[C@@H]2CC[C@]2(C)C(=O)CC[C@@H]12 [HDDG-041]	34	95	87
C[C@]12C=CC(=O)C=C1[C@@H](Br)C[C@@H]1[C@@H]2CC[C@]2(C)C(=O)CC[C@@H]12 [HDDG-040]	54	94	98

SMILES	% Inhibition [1] [%]	% Inhibition [2] [%]	% Inhibition [3] [%]
CCC(=O)OC1=C(O)C=CC2(C)C1=CCC1C2CCC2(C)C(=O)CCC12 (centres unmarked) [HDDG-022]	51	86	86
COC1=C(O)CC[C@@]2(C)C1=CC[C@@H]1[C@@H]2CC[C@]2(C)C(=O)CC[C@@H]12 [HDDG-020]	21	72	61
CO[C@@H]1C[C@@H]2[C@H](CC[C@]3(C)C(=O)CC[C@@H]23)[C@@]2(C)CCC(=O)C=C12 [HDDG-021]	0	70	63
C#CCO[C@@H]1C[C@@H]2[C@H](CC[C@]3(C)C(=O)CC[C@@H]23)[C@@]2(C)C=CC(=O)C=C12 [HDDG-026]	10	35	80
C[C@]12C=CC(=O)C=C1[C@H](OCC#Cc1ccc(Cl)c(Cl)c1)C[C@@H]1[C@@H]2CC[C@]2(C)C(=O)CC[C@@H]12 [HDDG-053, (6R,8R,9S,10R,13S,14S)-6-((3-(3,4-dichlorophenyl)prop-2-yn-1-yl)oxy)-10,13-dimethyl-7,8,9,10,11,12,13,14,15,16-decahydro-3H-cyclopenta[α]phenanthrene-3,17(6H)-dione]	95	91	
C[C@]12C=CC(=O)C=C1[C@H](OCC#Cc1cccc3ccccc13)C[C@@H]1[C@@H]2CC[C@]2(C)C(=O)CC[C@@H]12 [HDDG-054, (6R,8R,9S,10R,13S,14S)-10,13-dimethyl-6-((3-(naphthalen-1-yl)prop-2-yn-1-yl)oxy)-7,8,9,10,11,12,13,14,15,16-decahydro-3H-cyclopenta[α]phenanthrene-3,17(6H)-dione]	94	92	
N#Cc1ccc(C(c2ccc(C#N)cc2)n2cncn2)cc1 [Letrazole, reference compound]	76	98	
C[C@]12C=CC(=O)C=C1[C@H](OC(=O)Cc1ccccc1)C[C@@H]1[C@@H]2CC[C@]2(C)C(=O)CC[C@@H]12 [HDDG-031]	0	51	47
COc1ccc(COC2=C(O)CC[C@@]3(C)C2=CC[C@@H]2[C@@H]3CC[C@]3(C)C(=O)CC[C@@H]23)cc1 [HDDG-064]	96	96	
C[C@]12C=CC(=O)C=C1C=C[C@@H]1[C@@H]2CC[C@]2(C)C(=O)CC[C@@H]12 [HDDG-003]		67	80
C[C@]12C=CC(=O)C=C1[C@H](OCc1ccccc1)C[C@@H]1[C@@H]2CC[C@]2(C)C(=O)CC[C@@H]12 [HDDG-016]			52
CC/C=C\CO[C@@H]1C[C@@H]2[C@H](CC[C@]3(C)C(=O)CC[C@@H]23)[C@@]2(C)C=CC(=O)C=C12 [HDDG-062, (6R,8R,9S,10R,13S,14S)-10,13-dimethyl-6-((Z)-pent-2-en-1-yloxy)-7,8,9,10,11,12,13,14,15,16-decahydro-3H-cyclopenta[α]phenanthrene-3,17(6H)-dione]	97	96	
C#CCOC1=C(O)C=C[C@@]2(C)C1=CC[C@@H]1[C@@H]2CC[C@]2(C)C(=O)CC[C@@H]12 [HDDG-032]	32	98	93
CC#CCO[C@@H]1C[C@@H]2[C@H](CC[C@]3(C)C(=O)CC[C@@H]23)[C@@]2(C)C=CC(=O)C=C12 [HDDG-029]	34	63	95
CC(=O)O[C@@H]1C[C@@H]2[C@H](CC[C@]3(C)C(=O)CC[C@@H]23)[C@@]2(C)C=CC(=O)C=C12 [HDDG-033]	48	96	100
C[C@]12CCC(=O)CC1=CC[C@@H]1[C@@H]2CC[C@]2(C)C(=O)CC[C@@H]12 [HDDG-018]			41
C#CC(C)(C)O[C@@H]1C[C@@H]2[C@H](CC[C@]3(C)C(=O)CC[C@@H]23)[C@@]2(C)C=CC(=O)C=C12 [HDDG-028]	18	44	35
CO[C@@H]1C[C@@H]2[C@H](CC[C@]3(C)C(=O)CC[C@@H]23)[C@@]2(C)C=CC(=O)C=C12 [HDDG-009]			55
C[C@]12C=CC(O)=C(OC(=O)Cc3ccccc3)C1=CC[C@@H]1[C@@H]2CC[C@]2(C)C(=O)CC[C@@H]12 [HDDG-019]	29		54

Reference: patent US8969327B2, “Substituted androst-4-ene diones” (priority 2010, dated 2015)
